These results are taken from patent publication EP4703364A1, “QUINOLONE ANALOG AND USE THEREOF” (Horizon Omics Biotech Limited, priority 2023, dated 2024).

One data set relates to DLD1 BRCA2^-/-. As to the kind of experiment: Cell activity assay (CellTiterGlo), BRCA2 gene knockout DLD1 cancer cells. As to conditions: Homo sapiens, DLD-1, 144 h, read-out: IC50(nM) DLD1 BRCA2^-/-. In kind it is cell-based. The protocol: (§1) • (1) Compound Treatment • a) Preparation of Stock Solutions of Compounds Test compounds were dissolved in DMSO at a concentration of 10 mM or 5 mM, and Olaparib was dissolved in DMSO at a concentration of 10 mM. • b) Compound Storage All compounds dissolved in DMSO were stored in a desiccator at room temperature for short-term storage and transferred to a -20°C refrigerator for long-term storage. • c) Preparation of Working Concentrations of Compounds
(§2) Test compounds were serially diluted in DMSO at a 3-fold gradient to prepare 10 concentration gradients, starting from 10 µM.
(§3) Olaparib was serially diluted in DMSO at a 3-fold gradient to prepare 10 concentration gradients, starting from 10 µM.
(§4) The 384-well plate loaded with the compounds was centrifuged at 1000 rpm for 1 minute.
(§5) • a) Cells were added to the culture medium and incubated in a cell culture incubator at 37°C with 5% CO2. • b) 40 µL of BRCA1- or BRCA2-deficient cells were added to a 384-well plate and incubated overnight at 37°C with 5% CO2. • c) The test compounds were prepared at different concentration gradients on the master plate, and 80 nL of the test compounds and Olaparib were taken from the master plate and added to the 384-well plate containing cells, and incubated at 37°C with 5% CO2 for 6 days. • d) CellTiterGlo (30 µL per well) was added to the 384-well plate, and after incubation at room temperature in the dark for 30 minutes, measurement was performed using an Envision plate reader.
(§6) • a) GraphPad Prism software was used to calculate the ICso and plot the activity curves as a function of concentration. • b) The inhibition of cell activity by the compounds was calculated using the following formula: % Inhibition = [1−(Cmpd−Blank)/(DMSO−Blank)]*100 [formula]

The subject of another data set is UWB1.289 Cells. As to the kind of experiment: Cell activity assay (CellTiterGlo), BRCA1 gene-deficient ovarian cancer cells UWB1.289. In kind it is cell-based. As to conditions: UWB1289, 144 h, BRCA1 gene-deficient ovarian cancer cells UWB1.289, 6 days incubation. Here is the method: as §1, §2, §3, §4, §5, §6
Background: ATP-based viability assays read luminescence as a measure of living cells.

In the next data set the target is hERG (Homo sapiens, UniProt Q12809). As to the kind of experiment: hERG cardiotoxicity assay (patch clamp, hERG stably expressed HEK 293 cell line). In kind it is cell-based. As to conditions: hERG current, HEK 293 cells, 5 doses. The protocol:
Assay Method: 1) The hERG stably expressed HEK 293 cell line (Cat# K1236) was purchased from Invitrogen. Cells were cultured in a medium consisting of 85% DMEM, 10% FBS, 0.1 mM NEAA, 25 mM HEPES, 100 U/mL penicillin-streptomycin, 5 µg/mL Blasticidin, and 400 µg/mL Geneticin. Cells were passaged approximately three times a week using TrypLE™ Express and maintained at ~40% to ~80% confluency. Before assay, cells were placed on coverslips with 5×10^5 cells per 6-cm cell culture dish and induced with 1 µg/mL doxycycline for 48 hours. 2) The coverslip was removed from the cell culture dish and placed on the microscope stage. A suitable cell was located using a 10× objective. The tip of the electrode was located under the microscope using the 10× objective, and the focus was adjusted to the plane of the cell. Once the tip was in focus, the coarse control of the manipulator was used to advance the electrode downward toward the cell while moving the objective to keep the tip in focus. When directly above the cell, the objective was switched to 40× objective, and the fine control of the manipulator was used to approach the cell surface in small steps. 3) A blank control was first performed to establish a baseline. […] In the presence of the test compounds, the hERG current was recorded for approximately 5 minutes to reach a steady state, followed by capturing 5 scans. For dose-response testing, 5 doses of the test compounds were cumulatively applied to the cells from low to high concentrations. The positive control, dofetilide at a concentration of 150 nM, was applied to each cell, and the hERG current was measured in the test compounds at the highest concentration as a negative control to normalize the percentage of inhibition. To ensure good performance of the cultured cells and operations, cells from the same batch were also tested with 5 doses of dofetilide. Table 5. hERG Toxicity Assay Results
Background: The hERG channel carries a current that helps repolarise heart muscle cells.

Data set [1] in a line: In-vivo pharmacokinetic study in mice (bioavailability testing). The note with it: mouse, plasma; oral (PO) and intravenous (IV) routes, female Balb/c nude mice. The protocol:
Test compounds were administered to mice via oral (PO) and intravenous (IV) routes. The test compounds were dissolved at room temperature. The mice used in the study were Balb/c nude mice, all female, aged 6-8 weeks, with a body weight of 20-30 grams. Before administration, the mice had free access to food and water. Blood samples (approximately 0.03 mL per sample) were collected from the vein at appropriate time points. The samples were placed in tubes containing an anticoagulant and stored on ice until centrifugation. Blood samples were collected at 0.083, 0.25, 0.5, 1, 2, 4, 8, and 24 hours after intravenous administration, and at 0.25, 0.5, 1, 2, 4, 8, and 24 hours after oral administration. The blood samples were centrifuged at approximately 4000 rpm at 2-8 °C for 5 minutes. Plasma samples were then collected and stored frozen at approximately -80 °C until analysis. The LC-MS/MS system was used for bioanalytical work. Table 4. Bioavailability Testing

Data set [2] in a line: Toxicity assay in mice, repeated dosing at 50 mg/kg, body weight. In kind it is in vivo. As to conditions: 50 mg/kg PO once every 3 days. Here is the method:
Test compounds were administered to mice via the oral (PO) route. The test compounds were dissolved at room temperature. The mice used in the study were all female, and aged 6-8 weeks. Before administration, the mice had free access to food and water. Vehicle control: 50 mM NaH2PO4, pH 4.0, administered once every 3 days. CX-5461 and Compound H-31 were administered once every 3 days at a dose of 50 mg/kg. If the body weight of the mice decreased by more than 15%, administration was suspended until the body weight recovered, after which administration was resumed.

Data set [3] is described as follows: Toxicity assay in mice, repeated dosing at 55 mg/kg, body weight. The class given is in vivo. As to conditions: 55 mg/kg PO once every 3 days, 4 repeated administrations, female Balb/c mice. Here is the method:
Test compounds were administered to mice via the oral (PO) route. The test compounds were dissolved at room temperature. The mice (Balb/c) used in the study were all female, and aged 6-8 weeks. Before administration, the mice had free access to food and water.
Vehicle control: 50 mM NaH2PO4, pH 4.0. CX-5461 and the H series compounds were administered once every 3 days at a dose of 55 mg/kg, with four doses administered in total.

For data set [4], the system named is human herpesvirus HCMV-AD169. In words: Antiviral cell-protective activity, GFP-labeled HCMV-AD169 in MRC5 cells. The class given is cell-based. Here is the method:
MRC5 cells were seeded in microplates at a specific density and cultured overnight in an incubator at 37 °C with 5% CO2. Serially diluted compounds and GFP-labeled human herpesvirus HCMV-AD169 were added to the microplates. A cell control group (cells without compound treatment or viral infection) and a virus control group (cells infected with the virus but without compound treatment) were set up. The test compounds and control compounds were tested at 8 concentrations, with 3-fold serial dilutions and triplicate wells for each concentration. Meanwhile, the cytotoxicity of the test compounds and control compounds on cells was determined. The cells were cultured in an incubator at 37 °C with 5% CO2 for 7 days. Acumen Cellista was used to detect the GFP fluorescence intensity inside the cells in each well. Cell viability detection reagents CCK-8 or Cell Titer Glo were used to measure cell viability, and the original data were used for calculating the cytotoxicity of the test compounds. GraphPad Prism software was applied to analyze the dose-response curves of the test compounds, calculate the virus inhibition EC50 and cytotoxicity CC50 values, and further calculate the therapeutic index (SI), using the formula SI = CC50/EC50, which was used to evaluate the therapeutic potential of the drug; a higher SI value indicates stronger efficacy of the drug against viruses.

The test system of the next data set is MDA-MB-436 cancer cells. As to the kind of experiment: Inhibition of human-derived cancer in mouse model (MDA-MB-436 subcutaneous tumors). In kind it is in vivo, NOD SCID mice. As to conditions: MDA-MB-436 model, oral, 100 mg/kg once a day for 28 days. Here is the method: The anti-cancer efficacy of the compounds of the present application was evaluated in NOD SCID mice. Female mice aged 6-8 weeks were subcutaneously inoculated with MDA-MB-436 cancer cells to form tumors. When the tumors reached a size of 100-150 mm^3, the mice were randomly divided into groups, with 6 mice in each group. The administration route was oral administration. Olaparib was administered once a day at a dose of 100 mg/kg for a total of 28 days. The vehicle control group and Compound H-31 were administered once every 3 days at a dose of 25 mg/kg.

Sequence of hERG (Q12809 whole entry): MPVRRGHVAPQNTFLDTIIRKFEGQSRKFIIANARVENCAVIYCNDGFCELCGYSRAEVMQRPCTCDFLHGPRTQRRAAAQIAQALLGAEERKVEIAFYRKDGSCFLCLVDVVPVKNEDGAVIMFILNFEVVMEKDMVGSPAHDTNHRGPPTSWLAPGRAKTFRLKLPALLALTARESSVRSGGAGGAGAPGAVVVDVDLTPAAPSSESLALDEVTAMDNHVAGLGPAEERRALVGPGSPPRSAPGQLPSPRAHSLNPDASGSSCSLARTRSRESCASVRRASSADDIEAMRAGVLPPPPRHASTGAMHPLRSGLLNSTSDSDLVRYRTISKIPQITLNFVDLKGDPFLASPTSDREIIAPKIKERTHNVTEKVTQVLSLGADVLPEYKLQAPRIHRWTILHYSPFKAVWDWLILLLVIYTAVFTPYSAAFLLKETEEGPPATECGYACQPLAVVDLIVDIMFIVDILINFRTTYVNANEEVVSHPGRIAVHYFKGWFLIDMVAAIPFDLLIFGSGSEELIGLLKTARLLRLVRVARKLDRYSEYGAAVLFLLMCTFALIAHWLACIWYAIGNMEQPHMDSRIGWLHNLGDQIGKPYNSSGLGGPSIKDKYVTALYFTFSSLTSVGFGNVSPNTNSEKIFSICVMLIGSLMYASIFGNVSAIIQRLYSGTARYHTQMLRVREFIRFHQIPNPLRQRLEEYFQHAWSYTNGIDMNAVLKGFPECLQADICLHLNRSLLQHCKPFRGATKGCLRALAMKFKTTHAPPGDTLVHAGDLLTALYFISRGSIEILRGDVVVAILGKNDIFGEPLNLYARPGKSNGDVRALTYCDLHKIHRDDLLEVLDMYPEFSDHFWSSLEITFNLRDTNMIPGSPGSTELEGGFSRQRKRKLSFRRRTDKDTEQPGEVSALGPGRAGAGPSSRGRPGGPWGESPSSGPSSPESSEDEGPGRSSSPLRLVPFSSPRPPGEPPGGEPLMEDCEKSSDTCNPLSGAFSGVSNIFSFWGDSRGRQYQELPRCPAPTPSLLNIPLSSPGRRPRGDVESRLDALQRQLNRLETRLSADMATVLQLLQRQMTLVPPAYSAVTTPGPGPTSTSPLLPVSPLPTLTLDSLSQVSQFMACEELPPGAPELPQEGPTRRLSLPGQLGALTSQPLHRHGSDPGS

A word on the bioavailability: it is dose-corrected exposure relative to a reference, in per cent. A high value points to much systemic uptake. In the case of `Cc1cnc(CNC(=O)c2c(=O)c3ccc(N4CCCN(C)CC4)nc3n3c2sc2ccccc23)cn1` [CX-5461], the IC50 amounted to 43.9 nM in the data set with DLD1 BRCA2^-/-, 91.6 nM in the data set with UWB1.289 Cells and 5100 nM at hERG. This molecule returned a bioavailability in data set [1] of 33.8%. Besides, the “overall condition / clinical symptoms” value in data set [2] (21 days, female mice) is “poor overall condition, sluggish movement, and pallor in the tails and toes due to blood loss”. For the same molecule, in data set [2] (after 21 days of repeated administration, female mice), the “effect on mouse body weight” value is “significantly reduced the body weight of the mice”. The “average body weight loss” value in data set [2] (administration halted for the entire group) was “exceeded 10%”.
For `CN1CCCN(c2ccc3c(=O)c(C(=O)NCc4ncc(F)cn4)c4sc5ccccc5n4c3n2)CC1` [Compound H-1], the IC50 with DLD1 BRCA2^-/- is 37.7 nM. This molecule came in with a bioavailability in data set [1] of 60.7%.
With `CN1CCCN(c2ccc3c(=O)c(C(=O)NCc4ncc(Cl)cn4)c4sc5ccccc5n4c3n2)CC1` [Compound H-2], the IC50 with DLD1 BRCA2^-/- amounted to 33.8 nM. Besides, the bioavailability in data set [1] was 47.2%.
In the case of `CN1CCCN(c2ccc3c(=O)c(C(=O)NCc4ncc(C(F)(F)F)cn4)c4sc5ccccc5n4c3n2)CC1` [Compound H-4], the IC50 with DLD1 BRCA2^-/- is 36 nM. Further, the deaths entry in data set [3] is “no deaths observed”.
As to `[2H]C1([2H])CN(c2ccc3c(=O)c(C(=O)NCc4ncc(F)cn4)c4sc5ccccc5n4c3n2)C([2H])([2H])C([2H])([2H])N(C)C1([2H])[2H]` [Compound H-6], the IC50 in the data set on DLD1 BRCA2^-/- was found to be 23.8 nM.
On the same count and under the same terms, the figure for `[2H]C([2H])([2H])N1C([2H])([2H])C([2H])([2H])CN(c2ccc3c(=O)c(C(=O)NCc4ncccn4)c4sc5ccccc5n4c3n2)C([2H])([2H])C1([2H])[2H]` [Compound H-7] is 16.2 nM.
Regarding `[2H]C([2H])([2H])N1C([2H])([2H])C([2H])([2H])CN(c2ccc3c(=O)c(C(=O)NCc4ncc(F)cn4)c4sc5ccccc5n4c3n2)C([2H])([2H])C1([2H])[2H]` [Compound H-8], the IC50 in the data set on DLD1 BRCA2^-/- is 15.9 nM.
The same measure, in the same setting: the figure for `CN1CCCN(c2ccc3c(=O)c(C(=O)NCc4ncc(C#N)cn4)c4sc5ccccc5n4c3n2)CC1` [Compound H-11] is 16.2 nM.
Consider `CN1CCCN(c2ccc3c(=O)c(C(=O)NCc4nccc(C#N)n4)c4sc5ccccc5n4c3n2)CC1` [Compound H-12], for which the IC50 in the data set on DLD1 BRCA2^-/- was 13.7 nM. In data set [1], the bioavailability worked out at 49.1%.
On hERG, `CNC(=O)c1cnc(CNC(=O)c2c(=O)c3ccc(N4CCCN(C)CC4)nc3n3c2sc2ccccc23)nc1` [Compound H-13] showed an IC50 of more than 30000 nM.
At hERG, `CN1CCCN(c2ccc3c(=O)c(C(=O)NCc4ncc(C(=O)N(C)C)cn4)c4sc5ccccc5n4c3n2)CC1` [Compound H-15] displayed an IC50 of more than 30000 nM.
As for `COc1cnc(CNC(=O)c2c(=O)c3ccc(N4CCCN(C)CC4)nc3n3c2sc2ccccc23)nc1` [Compound H-16], the IC50 with DLD1 BRCA2^-/- came to 27.5 nM.
For the molecule `COc1ccnc(CNC(=O)c2c(=O)c3ccc(N4CCCN(C)CC4)nc3n3c2sc2ccccc23)n1` [Compound H-17], the bioavailability in data set [1] was 74.6%. In data set [3], the deaths entry is “no deaths observed”.
`CSc1cnc(CNC(=O)c2c(=O)c3ccc(N4CCCN(C)CC4)nc3n3c2sc2ccccc23)nc1` [Compound H-18] returned an IC50 against hERG of 10700 nM.
On to `CNc1cnc(CNC(=O)c2c(=O)c3ccc(N4CCCN(C)CC4)nc3n3c2sc2ccccc23)nc1` [Compound H-19], for which the IC50 in the data set on DLD1 BRCA2^-/- is 30.3 nM.
For `CCc1cnc(CNC(=O)c2c(=O)c3ccc(N4CCCN(C)CC4)nc3n3c2sc2ccccc23)nc1` [Compound H-21], in data set [1], the bioavailability worked out at 66.8%.
Turning to `CCc1ccnc(CNC(=O)c2c(=O)c3ccc(N4CCCN(C)CC4)nc3n3c2sc2ccccc23)n1` [Compound H-22], the IC50 in the data set with DLD1 BRCA2^-/- is 36.7 nM. For the same molecule, the bioavailability in data set [1] was 40.6%.
Regarding `CN1CCCN(c2ccc3c(=O)c(C(=O)NCc4ncc(C5CC5)cn4)c4sc5ccccc5n4c3n2)CC1` [Compound H-27], the bioavailability in data set [1] was 59.2%.
`CN1CCCN(c2ccc3c(=O)c(C(=O)NCc4nccc(C5CC5)n4)c4sc5ccccc5n4c3n2)CC1` [Compound H-28] came in with a bioavailability in data set [1] of 41.6%.
As usually defined, the EC50 is the midpoint of the concentration-response curve. With `Nc1nc(O)c2ncn(COC(CO)CO)c2n1` [Ganciclovir, reference compound], the EC50 in data set [4] (Human betaherpesvirus 5, 168 h, HCMV-AD169 GFP fluorescence, 7 days, read-out: Virus inhibition EC50) was determined as 1600 nM. Also, the “SI (CC50/EC50)” value in data set [4] (therapeutic index, HCMV-AD169) is more than 60.7.
For the molecule `O=C(c1cc(Cc2n[nH]c(=O)c3ccccc23)ccc1F)N1CCN(C(=O)C2CC2)CC1` [Olaparib, reference compound], the cancer inhibition rate in the data set on MDA-MB-436 cancer cells stood at 63.4%. Moreover, the values for the IC50 with DLD1 BRCA2^-/- and in the data set with UWB1.289 Cells were 490 nM and 716 nM, respectively.
